Broadly, the Ki is a measure of affinity in units of concentration, obtained from inhibition or displacement.

Assay [1] has as its target T1, CB2 receptors (Mus musculus, UniProt P47936).
T1 construct: the complete brain (excluding the cerebellum) and the spleen were quickly dissected and kept in ice; from tissue; host or cells: mouse spleen, membrane preparation
Briefly: biochemical. Type of assay: binding. How it is done:
(§1) The affinity of the synthesized compounds towards the CB1 and CB2 cannabinoidergic receptors was evaluated in vitro by radioreceptor binding studies using the method reported hereinunder.
(§2) The technique of the receptor binding allows to establish if, and with which affinity and specificity, a specific compound binds to a particular receptor. To evaluate the affinity of a specific compound to a particular receptor it is necessary to challenge in a particular tissue preparation wherein those specific receptors are present the compound to be tested with a radioactive labelled compound whose affinity for the same receptors is known. […] The amount of radioactivity present in the receptor-compound complex allows furthermore to estimate with great accuracy the amount of compound bound to the receptor. By said method it is therefore possible to establish quickly the affinity of a new compound towards a specific receptor and thus to determine its pharmacological activity. With the same experimental protocol it is possible to evaluate the affinity of the compound towards other receptors and thus establish its specificity degree toward said other receptors.
(§3) The food and water were ad libitum.
(§4) The procedure adopted, based on the use of the compound [^3H]-CP-55,940 (New England Nuclear, Boston, Mass., USA), requires the use of the mouse brain as biological tissue for the evaluation of the affinity towards the CB1 receptors and of the mouse spleen for the affinity assay for the CB2 receptors.
(§5) The animals were sacrificed by cervical dislocation and the complete brain (excluding the cerebellum) and the spleen were quickly dissected and kept in ice.
(§6) The tissue was homogenized in 15 volumes (weight/volume) of TME buffer (50 Mm Tris, 1 mM EDTA and 3 mM MgCl2, pH 7.4) by an Ultra-Turrax and subsequently centrifuged for 10 minutes at 1086×g in a centrifuge refrigerated at 4° C. The recovered supernatant was centrifuged at 45,000×g for 30 minutes at 4° C. by using a Beckman SW41 rotor and the obtained pellet was resuspended in 50 volumes of TME.
(§7) The thus obtained membranes (50-80 μg of proteins) were incubated in the presence of 1 nM of [^3H]-CP55.940 for 1 hour at 30° C. in a final volume of 0.5 ml of TME buffer containing 5 mg/ml of bovine serum albumin (BSA). The non specific binding was measured in the presence of CP55.940 at a 1 μM concentration.
(§8) All the experiments were carried out in polypropylene test tubes pretreated with Sigma-Cote (Sigma Chemical Co. Ltd., Poole, UK) for reducing non specific binding.
(§9) In order to determine the competitive inhibition binding curves, eight different concentrations of each compound were used.
(§10) Incubation was stopped by addition of TME buffer (at 4° C.) containing 5 mg/ml of BSA, and subsequent filtration under vacuum by Whatman GFC filters pretreated with 0.5% of polyethylamine (PEI) and by using a filtering device (Brandell, Gaithersburg, Md., USA). The filters were washed 3 times with […] of Tris HCl buffer (pH 7.4, 4° C.) containing 1 mg/ml of BSA and separately placed in plastic vials containing 4 ml of scintillating liquid (Ultima Gold MV, Packard).
(§11) The radioactivity present in the filters was determined by a scintillator spectrophotometer (Tricarb® 2100, Packard, Meridien, USA).
(§12) Protein determination was carried out by the Bradford method by using the protocol and the reactants supplied by Bio-Rad (Milano, Italy).

Assay [2] addresses T2, CB1 receptors (Mus musculus, UniProt P47746).
T2 construct: the complete brain (excluding the cerebellum) and the spleen were quickly dissected and kept in ice; from tissue; host or cells: mouse brain (excluding cerebellum), membrane preparation
Briefly: biochemical. Type of assay: binding. Here is the method:
as §1, §2, §3, §4, §5, §6, §7, §8, §9, §10, §11, §12

For assay [3], the system named is mouse deferent vessel (vas deferens). Put plainly: Ex-vivo model: electrically induced contractions of the isolated deferent vessel (vas deferens). Also noted: species or system albino CD1 mice. The following applies: for Effect on the curve % of inhibition of the contractions/logarithm of the WIN 55212-2 concentration: concentrations lower than or equal to 1×10^−5 M; for Inhibition of the contractions induced by the electric stimulus: concentrations lower than or equal to 1×10^−6 M. An excerpt: The use of the isolated deferent vessel organ, as a highly sensitive basic system in an ex-vivo model for evaluating the activity of agonist CB1 compounds, has been described by Pertwee et al. in Br. J. Pharmacol., 105:980-4, 1992. This model has been used also to evaluate the properties of antagonist CB1 compounds and to distinguish antagonist CB1 derivatives from inverse agonist CB1 compounds (Rinaldi-Carmona et al., FEBS Lett., 350:240-4, 1994; Pertwee et al., Eur. J. Pharmacol., 456:99-106, 2002). […] This effect is correlated to the action on the prejunctional neuronal CB1 receptors with the consequent release inhibition, induced by electric stimuli, of contractile neurotransmitters (noradrenaline and ATP) (Schlicker and Kathmann, Trends Pharmacol. Sci., 22:565-72, 2001). The inhibition of the contractions induced by the electric stimulus on the deferent vessel in the presence of agonist (or partial agonist) CB1 compounds are expressed as % of contraction inhibition. Said % contraction inhibition is calculated by the ratio between the contraction amplitude determined in the presence of a given concentration of the compound and that detected in its absence (basal value). The curve of the “% of contraction inhibition” as a function of the logarithm of the concentration of agonist (or partial agonist) CB1 compounds, is sigmoidal. The use of the model for the evaluation of antagonist CB1 compounds is based on the evaluation of their efficacy in inhibiting the action of the deferent vessel of agonist (or partial agonist) CB1 compounds. The inhibition is expressed by a shifting towards the right of the curves % of inhibition of contractions/logarithm of the concentration of the agonist CB1 compound, with increasing the concentration of the antagonist CB1 compound.
As reported in the literature, the experimentation has been carried out by using albino CD1 mice weighing 30-40 grams. The mice deferent vessel was recovered and transferred into an instrument for separated organs supplied by the Firm Ugo Basile (Comerio, Italy). The initial tension was of 0.5 g. The procedure adopted is reported in Pertwee et al. in Br. J. Pharmacol., 110:1483-1490, 1993. In particular the procedure and instruments as described by S. Ruiu et al. in J.P.E.T., Vol. 306, 2003, 363-370, have been used.
In a subsequent experiment it was shown that the compound activity was antagonized by the antagonist CB1 compound N-piperidinyl-[8-chloro-1-(2,4-dichlorophenyl)-1,4,5,6-tetrahydrobenzo[6,7]cyclohepta[1,2-c]pyrazol-3-carboxamide], described by S. Ruiu et al. in J.P.E.T., Vol. 306, 2003, 363-370. The experiment was carried out by adding the antagonist (concentration in bath 1 nM) 20 minutes before the first addition of the compound of the invention.

[4] abbreviates: mouse spleen membranes, 1 nM [3H]-CP55.940, read-out: CB2 (spleen) Ki.
Where [5] appears, read: mouse brain membranes, 1 nM [3H]-CP55.940, read-out: CB1 (brain) Ki.

SMILES strings stand for the structures. Like-named read-outs stand apart in the source and are kept apart here.

T1 sequence (P47936 whole entry): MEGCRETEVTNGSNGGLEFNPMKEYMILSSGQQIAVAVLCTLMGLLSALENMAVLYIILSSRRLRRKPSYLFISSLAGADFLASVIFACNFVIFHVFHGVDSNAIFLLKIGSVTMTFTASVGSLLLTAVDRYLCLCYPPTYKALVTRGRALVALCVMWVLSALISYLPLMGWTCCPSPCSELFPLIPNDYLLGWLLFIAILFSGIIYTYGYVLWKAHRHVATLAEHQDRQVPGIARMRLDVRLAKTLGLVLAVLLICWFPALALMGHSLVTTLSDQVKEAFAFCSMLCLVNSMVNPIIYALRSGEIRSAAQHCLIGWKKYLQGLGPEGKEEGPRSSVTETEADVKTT
T2 sequence (P47746 whole entry): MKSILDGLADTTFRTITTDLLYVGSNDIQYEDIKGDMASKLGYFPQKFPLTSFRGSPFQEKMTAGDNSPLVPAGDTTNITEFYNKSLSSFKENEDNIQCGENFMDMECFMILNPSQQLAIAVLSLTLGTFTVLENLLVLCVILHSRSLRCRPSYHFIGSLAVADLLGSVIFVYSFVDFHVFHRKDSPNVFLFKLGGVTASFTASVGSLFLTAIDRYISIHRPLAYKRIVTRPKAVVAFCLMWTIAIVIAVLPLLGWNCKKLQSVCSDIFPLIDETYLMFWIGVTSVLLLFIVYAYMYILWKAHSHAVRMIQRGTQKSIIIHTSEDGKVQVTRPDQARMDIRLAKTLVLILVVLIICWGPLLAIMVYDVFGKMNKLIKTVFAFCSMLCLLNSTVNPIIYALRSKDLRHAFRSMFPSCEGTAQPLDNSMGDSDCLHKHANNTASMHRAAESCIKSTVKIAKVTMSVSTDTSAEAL

With `CCOC(=O)c1nn(-c2ccc(S(N)(=O)=O)cc2)c2c1CCc1sccc1-2` [Compound (XA), 1-(4′-sulphonamidophenyl)-4,5-dihydro-1H-thieno[2,3-g]indazol-3-ethyl carboxylate], in assay [1] (setting [4]), the inhibitory constant (Ki) was greater than 5 µM. For the same compound, the Ki in assay [2] (setting [5]) was greater than 5 µM. In addition, in assay [3], the “Effect on the curve % of inhibition of the contractions/logarithm of the WIN 55212-2 concentration” value was “did not significantly modify the slope of the curve” and the “Inhibition of the contractions induced by the electric stimulus” value is given as “did not significantly inhibit the contractions”.
For the compound `NC(=O)c1nn(-c2ccc(S(N)(=O)=O)cc2)c2c1CCc1sccc1-2` [Compound (XB), 1-(4′-sulphonamidophenyl)-4,5-dihydro-1H-thieno[2,3-g]indazol-3-carboxamide], the Ki in assay [1] (setting [4]) was greater than 5 µM. The Ki in assay [2] (setting [5]) was greater than 5 µM. Moreover, in assay [3], the “Effect on the curve % of inhibition of the contractions/logarithm of the WIN 55212-2 concentration” value was “did not significantly modify the slope of the curve” and the “Inhibition of the contractions induced by the electric stimulus” value was “did not significantly inhibit the contractions”.
Regarding `Cc1ccc(Cn2nc(C(=O)NCC3CCC4CC3C4(C)C)c3c2-c2sc(C)cc2C3)cc1` (stereo not drawn) [Example 3.1, N-myrtanyl-6-methyl-1-(4′-methylbenzyl)-1,4-dihydrothieno[3′,2′:4,5]cyclopenta[1,2-c]pyrazol-3-carboxamide], the Ki in assay [1] stood at 0.0483 ± 0.0026 µM; in assay [2], 0.0836 ± 0.0146 µM. Besides, the “Antagonism of the compound activity by a CB1 antagonist” value in assay [3] (antagonist N-piperidinyl-[8-chloro-1-(2,4-dichlorophenyl)-1,4,5,6-tetrahydrobenzo[6,7]cyclohepta[1,2-c]pyrazol-3-carboxamide] 1 nM in bath, added 20 minutes before) was “antagonized”. Moreover, the “Functional character at CB1” value in assay [3] (vas deferens model) is on record as “CB1 agonist”.

(Values after patent publication US20100215759A1 (priority 2009, published 2010).)
